Experimental data taken from the NIST ThermoML archive (doi:10.1016/j.jct.2015.11.009).

Experiments:
[1] = xn = mol fraction of the nth substance listed; settings: 100 kPa, Liquid, x1 = 1; for speed of sound: Frequency=3 MHz, Sing-around technique in a fixed-path interferometer; for mass density: Vibrating tube method
[2] = refractive index (Na D-line) (dimensionless); xn = mol fraction of the nth substance listed; settings: 100 kPa, Liquid, Standard Abbe refractometry, x1 = 1
[3] = 100 kPa, Liquid; for speed of sound: Frequency=3 MHz, Sing-around technique in a fixed-path interferometer; for mass density: Vibrating tube method
[4] = refractive index (Na D-line) (dimensionless); settings: 100 kPa, Liquid, Standard Abbe refractometry

CCCCn1cc[n+](C)c1.F[B-](F)(F)F [1-butyl-3-methylimidazolium tetrafluoroborate] + O=C1CCCN1
Settings	mass density, [1] [kg/m3]	refractive index, [2]	speed of sound, [1] [m/s]
298.15 K	1198.78	1.42058	1565.1
303.15 K	1195.18	1.41913	1553.2
308.15 K	1191.6	1.41764	1541.3
313.15 K	1188.04	1.41621	1529.7
318.15 K	1184.5	1.41472	1518.2
323.15 K	1180.98	1.4133	1506.8

O=C1CCCN1 [2-pyrrolidinone]
Settings	mass density, [3] [kg/m3]	refractive index, [4]	speed of sound, [3] [m/s]
298.15 K	1107.16	1.48591	1634.4
303.15 K	1103.07	1.48403	1618
308.15 K	1098.99	1.48218	1601.6
313.15 K	1094.9	1.48033	1585.4
318.15 K	1090.82	1.47841	1570.4
323.15 K	1086.75	1.47649	1553.5
